Laboratory results taken from article PMC9315884, “New Membrane Active Antibacterial and Antiviral Amphiphiles Derived from Heterocyclic Backbone of Pyridinium-4-Aldoxime” (Pharmaceuticals, 2022).
Where “and” joins values, the source holds several entries; their conditions need not be identical. Identical values can stand only once. Counter-ions that a name gives are not always drawn. Like-named read-outs stand apart in the source and are kept apart here.

Key:
[1] = test system: Listeria monocytogenes ATCC7644; experiment: Broth microdilution assay (MIC); type: cell-based
Procedure: (§1) The antibacterial activity of all compounds was evaluated by determining the minimum inhibitory concentration (MIC), which is defined as the lowest concentration of the compound at which no visible bacterial growth is detected. The compounds were tested against representatives of Gram-positive and Gram-negative strains, including the ESKAPE bacterium Staphylococcus aureus ATCC25923 and the clinical isolate of methicillin-resistant S. aureus (MRSA), which are known for their pathogenicity.
(§2) All microbial strains were maintained at ™80 °C for long-term storage and subcultured on Mueller-Hinton (MH) agar (Biolife, Italy) prior to broth microdilution experiments. The MH plates were stored at +4 °C for no longer than one month.
(§3) Antibacterial activity was evaluated using the Broth Microdilution Assay according to the Clinical and Laboratory Standard Institute’s Methods for Dilution Antimicrobial Susceptibility Test for Bacteria That Grow Aerobically; Approved Standard-Tenth Edition.
(§4) The stock solution of QAS (10 mg/mL) was prepared in 4% DMSO. Then, 100 µL of the tested QAS was added to the first well of the microtiter plate. Twofold serial dilutions in Muller-Hinton broth were performed over the entire plate at a concentration range of 5 mg/mL to 5 µg/mL. […] The minimum inhibitory concentration (MIC) was determined as the lowest concentration at which no visually detectable bacterial growth occurred in the wells.

[2] = test system: Enterococcus faecalis ATCC29212; experiment: Broth microdilution assay (MIC); type: cell-based
Procedure: as §1, §2, §3, §4

[3] = test system: Staphylococcus aureus ATCC25923; experiment: Broth microdilution assay (MIC); type: cell-based; settings: Staphylococcus aureus
Procedure: as §1, §2, §3, §4

[4] = test system: Escherichia coli ATCC25922; experiment: Broth microdilution assay (MIC); type: cell-based
Procedure: as §1, §2, §3, §4

[5] = test system: Bacillus cereus ATCC14579; experiment: Broth microdilution assay (MIC); type: cell-based
Procedure: as §1, §2, §3, §4

[6] = test system: Pseudomonas aeruginosa ATCC27853; experiment: Broth microdilution assay (MIC); type: cell-based
Procedure: as §1, §2, §3, §4

[7] = test system: methicillin-resistant Staphylococcus aureus clinical strain MRSA; experiment: Broth microdilution assay (MIC); type: cell-based
Procedure: as §1
(§5) The collection included five Gram-positive strains, including Staphylococcus aureus (ATCC 25923 and a methicillin-resistant Staphylococcus aureus clinical strain MRSA), Bacillus cereus ATCC 14579, Enterococcus faecalis ATCC 29212, and Listeria monocytogenes ATCC 7644; and three Gram-negative strains: Escherichia coli ATCC 25922, Pseudomonas aeruginosa ATCC 27853 and the food isolate Salmonella enterica. All microbial strains were maintained at ™80 °C for long-term storage and subcultured on Mueller-Hinton (MH) agar (Biolife, Italy) prior to broth microdilution experiments. The MH plates were stored at +4 °C for no longer than one month.
as §3
(§6) The stock solution of QAS (10 mg/mL) was prepared in 4% DMSO. Then, 100 µL of the tested QAS was added to the first well of the microtiter plate. Twofold serial dilutions in Muller-Hinton broth were performed over the entire plate at a concentration range of 5 mg/mL to 5 µg/mL. To each well, 50 µL of mid-exponentially grown inoculum containing 10^5 CFU/mL in Mueller-Hinton broth was added and incubated at 37 °C for 18 hours. The minimum inhibitory concentration (MIC) was determined as the lowest concentration at which no visually detectable bacterial growth occurred in the wells.

[8] = test system: Salmonella enterica food isolate; experiment: Broth microdilution assay (MIC); type: cell-based; settings: S. enterica food isolate
Procedure: as §1, §5, §3, §6

[9] = test system: Tobacco mosaic virus (TMV); experiment: Antiphytoviral activity assay (local lesions on host plant leaves); type: in vivo, Tobacco mosaic virus on Datura stramonium; settings: Datura stramonium leaves, compound 100 µg/mL inoculated simultaneously with TMV
Procedure: Leaves of Nicotiana tabacum L. cv. Samsun plants systemically infected with Tobacco mosaic virus (TMV) were ground in 0.06 mol/L phosphate buffer, pH 7.0 (1:1, w/v) to prepare virus inocula. […] Leaves of the local host Datura stramonium L. were dusted with silicon carbide (Sigma-Aldrich, St. Louis, MO, USA) before virus inoculation, and the inoculum was diluted with inoculation buffer to obtain 5–20 lesions per inoculated leaf. Experiments were performed when the experimental plants reached the 4–6 leaf stage.
The tested QAS (10 mg/mL) were dissolved in 4% DMSO and added to the virus inocula at a final concentration of 100 µg/mL. DMSO was added to the control virus inocula at the same concentration. The control and treated plants were then rubbed with the prepared inocula and the antiviral activity of the tested compounds was evaluated by the percentage inhibition of the number of local lesions on the leaves of the treated and control plants as described in [40]. The obtained data were analyzed in Excel (Microsoft Office) and significant differences were determined by t-test.

[10] = ATCC25922, 18 h, E. coli ATCC25922
[11] = 18 h, L. monocytogenes ATCC7644, read-out: MIC
[12] = 18 h, E. faecalis ATCC29212, read-out: MIC
[13] = S. aureus ATCC25923, 18 h, 37 °C, read-out: MIC
[14] = ATCC25922, 18 h, E. coli ATCC25922, read-out: MIC
[15] = 18 h, B. cereus ATCC14579, read-out: MIC
[16] = 18 h, P. aeruginosa ATCC27853, read-out: MIC

SMILES | MIC ([1]; ATCC7644, 18 h) | MIC ([2]; ATCC29212, 18 h) | MIC ([3]; ATCC25923, 18 h) | MIC ([5]; ATCC14579, 18 h) | MIC ([6]; ATCC27853, 18 h) | MIC ([7]; MRSA, 18 h) | MIC ([8]; 18 h) | melting point | MIC [1, 11] | MIC [2, 12] | MIC [3, 13] | MIC [4, 14] | MIC [5, 15] | MIC [6, 16] | other results
O=[N+]([O-])c1ccc(C[n+]2ccc(C=NO)cc2)cc1 [Py-BnNO2] | > 5000 µg/mL and > 14800 µM | > 5000 µg/mL and > 14800 µM | 5000 µg/mL | > 5000 µg/mL | > 5000 µg/mL and > 14800 µM | > 5000 µg/mL | 5000 µg/mL and 14800 µM | – | – | – | – | – | – | – | MIC ([4]; ATCC25922, 18 h): 2500 µg/mL and 7390 µM
ON=Cc1cc[n+](CCCCCCCCCCBr)cc1.[Br-] [Py-C10Br, N-(10-bromodecyl)-4-hydroxyiminomethylpyridinium bromide] | 5000 µg/mL and 11800 µM | 5000 µg/mL and 11800 µM | 630 µg/mL | 630 µg/mL | > 5000 µg/mL and > 11800 µM | 310 µg/mL | 5000 µg/mL and 11800 µM | 103 to 105 °C | – | – | – | – | – | – | MIC [4, 10]: 630 µg/mL and 1490 µM
ON=Cc1cc[n+](Cc2ccc(Br)cc2)cc1 [Py-BnBr] | – | – | – | – | – | 1250 µg/mL | 630 µg/mL | – | 2500 µg/mL and 6720 µM | 2500 µg/mL and 6720 µM | 1250 µg/mL | 160 µg/mL | 2500 µg/mL | 5000 µg/mL and 13400 µM | –
ON=Cc1cc[n+](Cc2ccccc2)cc1 [Py-Bn] | > 5000 µg/mL and > 17000 µM | > 5000 µg/mL and > 17000 µM | > 5000 µg/mL | > 5000 µg/mL | > 5000 µg/mL and > 17000 µM | > 5000 µg/mL | > 5000 µg/mL and > 17000 µM | – | – | – | – | – | – | – | MIC ([4]; ATCC25922, 18 h): 1250 µg/mL and 4260 µM
ON=Cc1cc[n+](Cc2ccc(C(F)(F)F)cc2)cc1 (as salt: bromide) [Py-BnCF3, N-(p-(trifluoromethyl))benzyl-4-hydroxyiminomethylpyridinium bromide] | – | – | – | – | – | – | – | 186 to 187 °C | – | – | – | – | – | – | –
ON=Cc1cc[n+](Cc2ccc(C(F)(F)F)cc2)cc1 [Py-BnCF3, N-(p-(trifluoromethyl))benzyl-4-hydroxyiminomethylpyridinium bromide] | – | – | – | – | – | 1250 µg/mL | 1250 µg/mL and 3460 µM | – | 2500 µg/mL and 6920 µM | 2500 µg/mL and 6920 µM | 630 µg/mL | 2500 µg/mL and 6920 µM | 1250 µg/mL | 5000 µg/mL and 13800 µM | –
ON=Cc1cc[n+](Cc2ccc(Cl)cc2)cc1 [Py-BnCl] | – | – | – | – | – | 2500 µg/mL | 2500 µg/mL and 7630 µM | – | 2500 µg/mL and 7630 µM | 5000 µg/mL and 15300 µM | 1250 µg/mL | 310 µg/mL | 5000 µg/mL | 5000 µg/mL and 15300 µM | –
ON=Cc1cc[n+](CCCCCCCCBr)cc1.[Br-] [Py-C8Br, N-(8-bromooctyl)-4-hydroxyiminomethylpyridinium bromide] | 1250 µg/mL and 3170 µM | 2500 µg/mL and 6340 µM | 5000 µg/mL | 2500 µg/mL | > 5000 µg/mL and > 12700 µM | 2500 µg/mL | > 5000 µg/mL and > 12700 µM | 100 to 101 °C | – | – | – | – | – | – | MIC [4, 10]: 1250 µg/mL and 3170 µM
Cc1ccc(C[n+]2ccc(C=NO)cc2)cc1 [Py-BnCH3] | – | – | – | – | – | 5000 µg/mL | 630 µg/mL | – | 1250 µg/mL and 4070 µM | 2500 µg/mL and 8140 µM | 2500 µg/mL | 5000 µg/mL and 16300 µM | 5000 µg/mL | > 5000 µg/mL and > 16300 µM | –
CCCCCCCCCCCC[N+](C)(C)Cc1ccccc1.[Br-] [BAB, benzalkonium bromide, reference compound] | – | – | – | – | – | – | – | – | – | – | – | – | – | – | Number of local lesions (LLN ± SD) [9]: 0.2 and 0.2±0.2; Percentage of inhibition of local lesions ([9]; vs control plants): 98.7%
ON=Cc1cc[n+](Cc2ccc(OC(F)(F)F)cc2)cc1 (as salt: bromide) [Py-BnOCF3, N-(p-trifluoromethoxy)benzyl-4-hydroxyiminomethylpyridinium bromide] | – | – | – | – | – | – | – | 175 to 176 °C | – | – | – | – | – | – | –
CO/N=C(\C(=O)N[C@@H]1C(=O)N2C(C(=O)O)=C(COC(C)=O)CS[C@H]12)c1csc(N)n1 [Cefotaxime, reference compound] | – | – | – | – | – | – | – | – | – | – | – | – | – | – | MIC ([1]; L. monocytogenes ATCC7644, standards, read-out: MIC): 3.7 µg/mL and 10 µM; MIC ([2]; E. faecalis ATCC29212, standards, read-out: MIC): 29.8 µg/mL and 60 µM; MIC ([3]; S. aureus ATCC25923, standards, read-out: MIC): 3.7 µg/mL and 10 µM; MIC ([4]; ATCC25922, E. coli ATCC25922, standards, read-out: MIC): 0.2 µg/mL and 0.4 µM; MIC ([5]; B. cereus ATCC14579, standards, read-out: MIC): 3.7 µg/mL and 10 µM; MIC ([6]; P. aeruginosa ATCC27853, standards, read-out: MIC): 59.7 µg/mL and 130 µM; MIC ([7]; S. aureus clinical/MRSA, read-out: MIC): > 119 µg/mL; MIC ([7]; S. aureus clinical/MRSA, standards, read-out: MIC): > 250 µM; MIC ([8]; standards): 0.1 µg/mL and 0.2 µM
ON=Cc1cc[n+](Cc2ccc(OC(F)(F)F)cc2)cc1 [Py-BnOCF3, N-(p-trifluoromethoxy)benzyl-4-hydroxyiminomethylpyridinium bromide] | – | – | – | – | – | 1250 µg/mL | 2500 µg/mL and 6630 µM | – | 2500 µg/mL and 6630 µM | 2500 µg/mL and 6630 µM | 310 µg/mL | 310 µg/mL | 2500 µg/mL | 2500 µg/mL and 6630 µM | –
